{"source": "patent US20090281025A1", "about": "“INHIBITION OF TUMOR GROWTH AND METASTASIS BY ATF2-DERIVED PEPTIDES” (Mount Sinai School Of Medicine of New York University, priority 2004, published 2009)", "key": {"[1]": {"tested_on": "Human melanoma cells LU1205", "assay": "Caspase and PARP cleavage immunoblot in LU1205 cells", "assay_type": "cell-based", "details": "peptides by transfection, UCN-01 (5 μm) 24 hours", "protocol": "Human melanoma cells LU1205 were transfected with the nucleic acid molecules that encode either ATF2^51-100 peptide or ATF2^51-60 peptide. Twenty-four hours after transfection, cells were treated with of UCN-01 (5 μm) for 24 hours. Immunoblotting analysis was performed using caspase 9 and PARP antibodies, and β-actin was used as a loading control (FIG. 6A). The same experiment was performed in SW-1 cells (FIG. 6B). Stars point to the position of the uncleaved form whereas arrows point to the cleaved products.\n(§1) Effect on Apoptosis. Assessed next was the degree of apoptosis in SW1 cells under normal growth (spontaneous) as well as following treatment with chemotherapeutic drugs. Cells were analyzed to detect spontaneous (basal) or induced apoptosis [following treatment with the kinase inhibitor UCN-01 (kindly provided by NCI repository) for 36 hours]. Apoptosis was measured by using FACS (Ivanov et al., Mol. Cell, 2001, 7:517-28) to quantify the percentage of hypodiploid nuclei undergoing DNA fragmentation. Nucleation as a marker of apoptosis was monitored via DAPI staining of cells at indicated time points after their treatment. Caspase activity was monitored by immunoblots using antibodies to caspase 9 (Santa Cruz). PARP cleavage was monitored by corresponding antibodies (PharMingen)."}, "SW1 melanoma cells": {"tested_on": "SW1 melanoma cells", "assay": "Apoptosis of SW1 cells by FACS (hypodiploid nuclei)", "assay_type": "cell-based, mouse", "details": "SW1 cells expressing peptide, given as control-to-peptide increase", "protocol": "(§2) SW1 cells constitutively expressing the indicated ATF2 peptides were transfected with either TRE-Luc (FIG. 5A) or with Jun2-Luc (FIG. 5B), and proteins were prepared for analysis of luciferase activity after 18 hours. Analysis was performed in duplicate, and the data reflect three independent experiments. SW1 cells expressing the ATF2 peptides were analyzed to establish the degree of spontaneous (basal) apoptosis as well as apoptosis 24 hours following treatment with the chemotherapeutic drug UCN-01 (FIG. 5C). The data represent triplicate analysis reproduced three times.\nas §1"}, "TRE-Luc": {"tested_on": "TRE-Luc", "assay": "TRE-Luc luciferase reporter assay in SW1 cells", "assay_type": "cell-based, mouse", "details": "SW1 cells expressing peptide, luciferase after 18 hours", "protocol": "as §2\nAlteration of ATF2 Transcriptional Activity. Assessed next was whether the short peptide caused any change in transcriptional activity mediated by ATF2 and its heterodimeric partners, using the TRE and Jun2 promoter sequences linked to the Luciferase marker gene. These reporter constructs (0.3 μg) were cotransfected with the respective expression vectors into melanoma cells (5×10^5) using Lipofectamine (Invitrogen). Luciferase activity was measured using the Luciferase assay system (Promega)."}, "[2]": {"tested_on": "FEMX human melanoma cells", "assay": "Growth and TUNEL apoptosis of FEMX human melanoma tumors expressing ATF2 peptide in nude mice", "assay_type": "in vivo", "excerpt": "LU1205 or FEMX human melanoma tumor-derived cell lines that constitutively express ATF2^51-100 peptide or that contain control vector were each injected subcutaneously into a group of 6 nude mice (10^6 cells per injection) per cell line per experiment. […] The data shown represent three experiments. Bars represent standard deviation, P<0.0015. […] The data shown represent three experiments. Bars represent standard deviation, P<0.0021.\nThe ability of expressed ATF2^51-100 peptide to affect the tumorigenicity of human melanoma cells in vivo was examined. To this end, growth of LU1205 and FEMX human melanoma cells were monitored in nude mice in the presence or absence of treatment that induced apoptosis in vitro. LU1205, FEMX and SW-1 cells that express control or ATF2^51-100 peptide were trypsinized, resuspended in PBS and injected SC (1×10^6) into 6-7 week old mice in the lower flank. When the tumor reached the size of about 50 mm^3, 10 μM of SB203580 was injected into 4 areas of the LU1205 tumors every 4 days during a 2 week period. For FEMX tumors, UCN-01 (5 mg/Kg) was fed by gavage, three times per week for a total of 2 weeks. Tumor growth was monitored every two days. Tissue samples were fixed in formalin and embedded in paraffin. Hematoxylin and eosin (H&E), TUNEL staining was performed as previously described (Bhoumik et al., Clin. Cancer Res., 2001; 2:331-342)."}, "[3]": {"tested_on": "early-stage melanoma, melanocytes, in vitro transformed 293T cells", "details": "cited from earlier work"}}, "note": "“Also recorded” adds a separate entry of the source.", "data": [{"substance": "ATF2^51-100: amino-terminal peptide of ATF2, amino acid residue 51 to 100 (about a 50 amino acid peptide), expressed in tumor cells (MTLKFGPARNDSVIVADQTPTPTRFLKNCEEVGLFNELASPFENEFKKAS; UniProt P15336 51-100, looked up, fragment)", "values": [{"measurement": "activation of caspase 9 (cleavage fragments)", "setting": "[1]", "value": "activation of caspase 9 even prior to treatment with UCN-01"}, {"measurement": "spontaneous (basal) apoptosis", "setting": "SW1 melanoma cells; absence of treatment", "value": "12-55%"}, {"measurement": "UCN-01-induced apoptosis", "setting": "SW1 melanoma cells; treated with UCN-01", "value": "20-77%"}, {"measurement": "TRE-Luc activity", "setting": "TRE-Luc", "value": "marked increase"}, {"measurement": "tumor growth rate", "setting": "[2]; FEMX cells constitutively expressing peptide, SC in nude mice", "value": "reduced the growth rates; also recorded: inhibits growth"}, {"measurement": "tumor growth with additional treatment", "setting": "[2]; peptide-expressing FEMX tumors plus UCN-01 5 mg/Kg by gavage", "value": "additional decrease in growth"}, {"measurement": "degree of apoptosis in tumors (TUNEL)", "setting": "[2]; peptide-expressing tumors upon exposure to additional treatment", "value": "marked increase in the degree of apoptosis"}, {"measurement": "sensitization by ATF2 peptide", "setting": "[3]", "value": "not in early-stage melanoma, or melanocytes, or in in vitro transformed 293T cells"}]}]}
